Measurements: publication PMC12070314, “Efficient Small-Molecule Reversal Agents for Anticoagulant Fondaparinux” (ACS Pharmacology & Translational Science, 2025)
Where two headings read alike, the source gives them in different places.

How the values were obtained:
[1] = earlier work of the authors; reference number not given; read-out: Apparent affinity for heparin, K D^app; cited from earlier work
[2] = test system: FXa/ATIII inhibited by LMWH; test: In vitro FXa/ATIII enzymatic assay with LMWH; type: biochemical, human; settings: [LMWH] = [antidote] = 0.1 or 10 μM, Figure S3
Procedure: Recombinant antithrombin III and coagulation factor Xa were obtained from two different kits, Berichrom Heparin test (SIEMENS) and Kinetichrome Anti-Xa Heparin kit (Iduron). Methods for both kits are similar, but not identical. Differences will be spotted by method A (SIEMENS) and method B (Iduron). Following the manufacturer’s instructions, stock solutions were prepared as follows: human antithrombin III (1 IU/mL) and factor Xa reagent (0.4 μg/mL, human plasma fraction with additives Tris, sodium chloride, and EDTA). Chromogenic substrate specific for factor Xa was dissolved at 4 mM concentration (A: Z-D-Leu-Gly-Arg-ANBA-methyl amide, and B: Z-D-Arg-Gly-Arg-pNA). Additionally, either 4-nitroaniline (A) or N-Boc-4-nitroaniline (B) was added to the substrate solution at a concentration of 1.6 mM and used as an internal standard to quantify the hydrolysis of the chromogenic substrate. All compounds were dissolved in Milli-Q water at the desired stock concentrations prior to start of the assays and kept at 4 °C. […] FXa/ATIII activity was represented as the percent of hydrolysis, which was calculated from the normalized area of the cleaved peptide at 405 nm at each corresponding time point. […]

[3] = Hemolysis assay; type: cell-based; settings: freshly isolated mouse erythrocytes, roughly 4-5% suspension, 37 °C
Procedure: Mouse blood (4 mL) was collected in a sodium citrate tube and immediately centrifuged at 1700g for 5 min. The supernatant was removed, and the erythrocytes were washed by adding 2 mL of PBS. It was centrifuged again at 1700g for 5 min. The washing step was repeated twice more. The supernatant was finally removed, and the erythrocytes were diluted in PBS until obtaining a roughly 4–5% suspension. 50 μL of erythrocyte solution was mixed with 50 μL of test compound (3×× at the desired concentration). As a negative control, 50 μL of PBS was used, while 10% Triton X-100 was used as a positive control. The samples were incubated at 37 °C for 60 min. After that, they were centrifuged (1700g for 5 min), and the supernatant was transferred to a 96-well plate. Absorbance was measured at 405 nm. The experiment contained three technical replicates. The results are the average from three independent experiments.

[4] = test system: FXa/ATIII inhibited by fondaparinux; test: In vitro FXa/ATIII enzymatic assay of anti-fondaparinux activity; type: biochemical, human; settings: for Restoration of FXa protease activity (hydrolysis rate of the peptide substrate): 15 μM fond + 9 or 15 μM antidote, HPLC
Procedure: The activity of two spermine derivatives, 3AC and 3FF, as fond antidotes was evaluated with an in vitro enzymatic assay related to blood coagulation, as previously described (Figure A). , In brief, fond promotes a conformational change in ATIII toward an efficient inhibitor of FXa. Addition of a ligand of fond hinders the inhibitory action of ATIII restoring the FXa hydrolytic activity, which has been used as an indirect measurement of antifond behavior.
Recombinant antithrombin III and coagulation factor Xa were obtained from two different kits, Berichrom Heparin test (SIEMENS) and Kinetichrome Anti-Xa Heparin kit (Iduron). Methods for both kits are similar, but not identical. Differences will be spotted by method A (SIEMENS) and method B (Iduron). Following the manufacturer’s instructions, stock solutions were prepared as follows: human antithrombin III (1 IU/mL) and factor Xa reagent (0.4 μg/mL, human plasma fraction with additives Tris, sodium chloride, and EDTA). Chromogenic substrate specific for factor Xa was dissolved at 4 mM concentration (A: Z-D-Leu-Gly-Arg-ANBA-methyl amide, and B: Z-D-Arg-Gly-Arg-pNA). Additionally, either 4-nitroaniline (A) or N-Boc-4-nitroaniline (B) was added to the substrate solution at a concentration of 1.6 mM and used as an internal standard to quantify the hydrolysis of the chromogenic substrate. All compounds were dissolved in Milli-Q water at the desired stock concentrations prior to start of the assays and kept at 4 °C. Various concentrations of the ligand, fondaparinux (up to 15 μM) or LMWH (0.1 to 10 μM), human antithrombin III solution (2 μL), and factor Xa reagent solution (35 μL) were consecutively added to an Eppendorf vial and brought to a total volume of 145 μL. Then, 20 μL of reagent substrate solution was added to start the experiment, and the mixture was vigorously shaken at 25 °C. 20 μL aliquots were taken at 5/10/15/20/30/50/80/120 minutes, diluted with 40 μL of acetic acid (20% v/v), and injected into the analytical HPLC system. The gradient ranged from 5% of ACN (0.1% formic acid) in water (0.1% formic acid) to 100% of ACN in 24 min using a 15 × 4.6 mm KROMAPHASE C18 5.0 μm column. In A: the retention time of cleaved chromophore was 9.1 min, retention time of chromogenic substrate was 13.9 min, and retention time of 4-nitroaniline was 15.4 min. In B: the retention time of chromogenic substrate was 11.0 min, retention time of cleaved chromophore was 15.2 min, and retention time of N-Boc-4-nitroaniline was 21.7 min. FXa/ATIII activity was represented as the percent of hydrolysis, which was calculated from the normalized area of the cleaved peptide at 405 nm at each corresponding time point. The experiment carried out in the absence of heparinoid was considered as the maximum of activity, while the experiment with heparinoid and no ligand was considered as negative control (maximum inhibition of FXa by heparinoid). The concentration of heparinoid was selected for the measurement to render significant inhibition within experimental time while allowing the reaction to proceed.

[5] = Fluorescence titration with fondaparinux; type: binding; settings: for Kd: read-out: Apparent overall affinity for fond, K D^app ≈ BC50°
Source text: The fluorescence emission spectrum of 3AC upon excitation at 280 nm is a suitable indicator of the interaction with heparin-like GAGs. Thus, the titration of 3AC with fond in Bis-Tris buffer at pH 7.5 produced a perturbation of the corresponding intensity of the fluorene emission band (Figure A), presenting two clearly differentiated phases. At a low fond/3AC ratio, the fluorescence emission intensity decreases most likely due to the proximity of chromophores when several molecules of 3AC are closely bound to one molecule of fond. After reaching a fond/3AC molar ratio of ∼0.6, the emission band starts to recover as 3AC molecules are redistributed to equimolecular complexes with fond. Considering the disaccharide repeating unit of heparin as the main binding epitope of our ligands and the electrostatic charge complementarity, we can hypothesize the formation of fond/3AC supramolecular complexes with both 1:1 and 1:2 stoichiometries as the simplest binding model satisfying the two-phase behavior (Figure B). The emission band variation was successfully fitted to the 1:2 fond/3AC equilibria, rendering the formation constants (log β values) for the corresponding complexes (inset in Figure A).
Fluorescence emission and excitation spectra were collected on a Photon Technology International Instrument, Fluorescence Master Systems, using Felix32 software and cuvettes with 10 mm path length. Stock solutions of 3AC (10 μM) and fondaparinux (0.23 mM, also containing 10 μM 3AC) were prepared in 1 mM Bis-Tris buffer at pH 7.5. Then, 2 mL of binder solution was placed on a quartz cell, and the emission fluorescence spectrum was measured upon excitation at 280 nm. Then, small volumes of fond stock solution were added to the cell, and the fluorescence spectra were acquired after each addition. The titration experiments were fitted using HyperSpec 2008 software, , which allows a nonlinear global fitting of the full emission spectra to a binding mode as defined by the user.

[6] = [fond] = [antidote] = 15 μM, three reaction times

SMILES | Kd [1] | Percent recovery of peptide substrate hydrolysis vs LMWH [2] | hemolysis at 60 min [3] | Restoration of FXa protease activity (hydrolysis rate of the peptide substrate) [4] | Percent recovery of peptide substrate hydrolysis ([4]; [fond] = 15 μM, lower antidote concentration (9 μM), Figure S2) | Percent recovery of peptide substrate hydrolysis [4, 6] | Kd ([5]; 1 mM Bis-Tris buffer pH 7.5) | Stepwise binding constant K (1:1) ([5]; fond/3AC 1:1 complex, 1 mM Bis-Tris buffer pH 7.5) | Stepwise binding constant K (1:2) ([5]; fond/3AC 1:2 complex, 1 mM Bis-Tris buffer pH 7.5) | logβ(3AC-Fond) ([5]; formation constant from model fitting, 1:1 complex) | logβ(3AC2-Fond) ([5]; formation constant from model fitting, 1:2 fond/3AC complex)
Oc1ccccc1CNCCCNCCCCNCCCNCc1ccc2c(c1)Cc1ccccc1-2 [Compound 3AC] | ~0.5 µM | more active than prot and similar to cir | < 2% | restore the FXa protease activity in a dose–response manner | higher potency | almost complete fast recovery up to the control values | 4.5 ± 0.09 µM | 2.05 ± 0.05 × 10^5 M^–1 | 1.95 ± 0.19 × 10^4 M^–1 | 5.31(1) | 9.60(3)
Oc1ccc2ccccc2c1CNCCCNCCCCNCCCNCc1c(O)ccc2ccccc12 [Compound 3FF] | – | more active than prot and similar to cir | < 2% | restore the FXa protease activity in a dose–response manner | – | almost complete fast recovery up to the control values | 9.8 ± 0.3 µM | – | – | – | –
